From the supplement of paper PMC10307832

Legend:
Test in all cases: relative viability (nuclei count vs DMSO), 5 days (fraction); higher = more cells survive
[1] = system: A549
How it was run: (§1)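 Values are medians from duplicate plates. Each reflects relative viability, defined as the nuclei count of treated wells over that of vehicle wells. Lung cancer cell lines in 1536-well plates were pin-tool dosed one day after seeding with one drug alone or with a fixed anchor-drug dose plus five library-drug doses (not always all listed) in √10 steps, then fixed, stained and imaged at 4× after 5 days.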

[2] = system: NCI-H1703
How it was run: as §1

[3] = system: HCC-44
How it was run: as §1

[4] = system: Calu-6
How it was run: as §1

[5] = system: HCC-78
How it was run: as §1

[6] = system: NCI-H1563
How it was run: as §1

[7] = system: IA-LM
How it was run: as §1

[8] = system: NCI-H2087
How it was run: as §1

[9] = system: NCI-H1299
How it was run: as §1

[10] = system: EBC-1
How it was run: as §1

[11] = system: NCI-H322M
How it was run: as §1

`Cc1cn(-c2cc(NC(=O)c3ccc(C)c(Nc4nccc(-c5cccnc5)n4)c3)cc(C(F)(F)F)c2)cn1` [Nilotinib] + C[C@]1(O)C[C@@H](c2nc(-c3ccc4ccc(-c5ccccc5)nc4c3)c3c(N)nccn32)C1 [Linsitinib] (partner 1 µM) showed a relative viability ([1]; first compound 0.001 µM) of 0.778, a relative viability ([1]; first compound 0.003162 µM) of 0.582 and a relative viability ([1]; first compound 0.01 µM) of 0.767. It also gave a relative viability ([1]; first compound 0.03162 µM) of 0.535, a relative viability ([1]; first compound 0.1 µM) of 0.286 and a relative viability ([2]; first compound 0.001 µM) of 0.637. For the same compound, the relative viability ([2]; first compound 0.003162 µM) was 0.285, the relative viability ([2]; first compound 0.01 µM) was 0.343 and the relative viability ([2]; first compound 0.03162 µM) was 0.218. The relative viability ([2]; first compound 0.1 µM) was 0.136, the relative viability ([3]; first compound 0.001 µM) was 0.624 and the relative viability ([3]; first compound 0.003162 µM) was 0.768. The relative viability ([3]; first compound 0.01 µM) was 0.821, the relative viability ([3]; first compound 0.03162 µM) was 0.615 and the relative viability ([3]; first compound 0.1 µM) was 0.739. It also gave a relative viability ([4]; first compound 0.001 µM) of 0.819, a relative viability ([4]; first compound 0.003162 µM) of 1.06 and a relative viability ([4]; first compound 0.01 µM) of 1.06. It also gave a relative viability ([4]; first compound 0.03162 µM) of 0.809, a relative viability ([4]; first compound 0.1 µM) of 0.828 and a relative viability ([5]; first compound 0.001 µM) of 0.582. For the same compound, the relative viability ([5]; first compound 0.003162 µM) was 0.522, the relative viability ([5]; first compound 0.01 µM) was 0.637 and the relative viability ([5]; first compound 0.03162 µM) was 0.612. It also gave a relative viability ([5]; first compound 0.1 µM) of 0.604, a relative viability ([6]; first compound 0.001 µM) of 1.13 and a relative viability ([6]; first compound 0.003162 µM) of 1.17. The relative viability ([6]; first compound 0.01 µM) was 1.17, the relative viability ([6]; first compound 0.03162 µM) was 1.15 and the relative viability ([7]; first compound 0.001 µM) was 0.382. For the same compound, the relative viability ([7]; first compound 0.003162 µM) was 0.31, the relative viability ([7]; first compound 0.01 µM) was 0.634 and the relative viability ([7]; first compound 0.03162 µM) was 0.346. For the same compound, the relative viability ([7]; first compound 0.1 µM) was 0.216, the relative viability ([8]; first compound 0.001 µM) was 0.855 and the relative viability ([8]; first compound 0.003162 µM) was 0.949. For the same compound, the relative viability ([8]; first compound 0.01 µM) was 1.08, the relative viability ([8]; first compound 0.03162 µM) was 0.852 and the relative viability ([8]; first compound 0.1 µM) was 0.66. It also gave a relative viability ([9]; first compound 0.001 µM) of 0.91, a relative viability ([9]; first compound 0.003162 µM) of 1.1 and a relative viability ([9]; first compound 0.01 µM) of 1.28. It also gave a relative viability ([9]; first compound 0.03162 µM) of 0.957, a relative viability ([9]; first compound 0.1 µM) of 0.762 and a relative viability ([10]; first compound 0.001 µM) of 0.81. For the same compound, the relative viability ([10]; first compound 0.003162 µM) was 0.794, the relative viability ([10]; first compound 0.01 µM) was 1.14 and the relative viability ([10]; first compound 0.03162 µM) was 0.791. The relative viability ([10]; first compound 0.1 µM) was 0.66, the relative viability ([11]; first compound 0.001 µM) was 0.747 and the relative viability ([11]; first compound 0.003162 µM) was 1.03. For the same compound, the relative viability ([11]; first compound 0.03162 µM) was 0.76 and the relative viability ([11]; first compound 0.1 µM) was 0.932.

Compound `CN1CCN(CCOc2cc(OC3CCOCC3)c3c(Nc4c(Cl)ccc5c4OCO5)ncnc3c2)CC1` [Saracatinib] + CS(=O)(=O)CCNCc1ccc(-c2ccc3ncnc(Nc4ccc(OCc5cccc(F)c5)c(Cl)c4)c3c2)o1 [Lapatinib] (partner 2 µM) has a relative viability ([1]; first compound 0.02 µM) of 1.06, a relative viability ([1]; first compound 0.2 µM) of 1.01 and a relative viability ([1]; first compound 0.6325 µM) of 0.812. The relative viability ([1]; first compound 2 µM) was 0.791, the relative viability ([2]; first compound 0.02 µM) was 0.873 and the relative viability ([2]; first compound 0.2 µM) was 1.02. The relative viability ([2]; first compound 0.6325 µM) was 0.376, the relative viability ([2]; first compound 2 µM) was 0.283 and the relative viability ([3]; first compound 0.02 µM) was 1.01. The relative viability ([3]; first compound 0.2 µM) was 0.902, the relative viability ([3]; first compound 0.6325 µM) was 1.17 and the relative viability ([3]; first compound 2 µM) was 1.15. For the same compound, the relative viability ([4]; first compound 0.02 µM) was 1.08, the relative viability ([4]; first compound 0.2 µM) was 0.839 and the relative viability ([4]; first compound 0.6325 µM) was 0.913. The relative viability ([4]; first compound 2 µM) was 0.745, the relative viability ([5]; first compound 0.02 µM) was 0.822 and the relative viability ([5]; first compound 0.2 µM) was 0.481. For the same compound, the relative viability ([5]; first compound 0.6325 µM) was 0.686, the relative viability ([5]; first compound 2 µM) was 0.778 and the relative viability ([6]; first compound 0.02 µM) was 0.941. For the same compound, the relative viability ([6]; first compound 0.2 µM) was 0.778, the relative viability ([6]; first compound 0.6325 µM) was 0.831 and the relative viability ([6]; first compound 2 µM) was 0.775. The relative viability ([7]; first compound 0.02 µM) was 0.803, the relative viability ([7]; first compound 0.2 µM) was 0.799 and the relative viability ([7]; first compound 0.6325 µM) was 1.19. The relative viability ([7]; first compound 2 µM) was 0.799, the relative viability ([8]; first compound 0.02 µM) was 1.1 and the relative viability ([8]; first compound 0.2 µM) was 1.03. It also gave a relative viability ([8]; first compound 0.6325 µM) of 1.25, a relative viability ([8]; first compound 2 µM) of 0.981 and a relative viability ([9]; first compound 0.02 µM) of 0.982. It also gave a relative viability ([9]; first compound 0.2 µM) of 1.02, a relative viability ([9]; first compound 0.6325 µM) of 1 and a relative viability ([9]; first compound 2 µM) of 0.941. For the same compound, the relative viability ([10]; first compound 0.02 µM) was 0.199, the relative viability ([10]; first compound 0.2 µM) was 0.23 and the relative viability ([10]; first compound 0.6325 µM) was 0.197. The relative viability ([10]; first compound 2 µM) was 0.212, the relative viability ([11]; first compound 0.02 µM) was 0.639 and the relative viability ([11]; first compound 0.2 µM) was 0.607. It also gave a relative viability ([11]; first compound 0.6325 µM) of 0.56 and a relative viability ([11]; first compound 2 µM) of 0.486.

`CN1CCN(CCOc2cc(OC3CCOCC3)c3c(Nc4c(Cl)ccc5c4OCO5)ncnc3c2)CC1` [Saracatinib] + CS(=O)(=O)N1CCN(Cc2cc3nc(-c4cccc5[nH]ncc45)nc(N4CCOCC4)c3s2)CC1 [Pictilisib] (partner 1 µM) showed a relative viability ([1]; first compound 0.02 µM) of 0.491, a relative viability ([1]; first compound 0.2 µM) of 0.412 and a relative viability ([1]; first compound 0.6325 µM) of 0.515. The relative viability ([1]; first compound 2 µM) was 0.399, the relative viability ([2]; first compound 0.02 µM) was 0.228 and the relative viability ([2]; first compound 0.2 µM) was 0.242. For the same compound, the relative viability ([2]; first compound 0.6325 µM) was 0.181, the relative viability ([2]; first compound 2 µM) was 0.203 and the relative viability ([3]; first compound 0.02 µM) was 0.527. The relative viability ([3]; first compound 0.2 µM) was 0.598, the relative viability ([3]; first compound 0.6325 µM) was 0.854 and the relative viability ([3]; first compound 2 µM) was 0.442. For the same compound, the relative viability ([4]; first compound 0.02 µM) was 0.858, the relative viability ([4]; first compound 0.2 µM) was 0.645 and the relative viability ([4]; first compound 0.6325 µM) was 0.702. For the same compound, the relative viability ([4]; first compound 2 µM) was 0.613, the relative viability ([5]; first compound 0.02 µM) was 0.242 and the relative viability ([5]; first compound 0.2 µM) was 0.154. It also gave a relative viability ([5]; first compound 0.6325 µM) of 0.178, a relative viability ([5]; first compound 2 µM) of 0.21 and a relative viability ([6]; first compound 0.02 µM) of 0.618. For the same compound, the relative viability ([6]; first compound 0.2 µM) was 0.609, the relative viability ([6]; first compound 0.6325 µM) was 0.63 and the relative viability ([6]; first compound 2 µM) was 0.606. The relative viability ([7]; first compound 0.02 µM) was 0.33, the relative viability ([7]; first compound 0.2 µM) was 0.445 and the relative viability ([7]; first compound 0.6325 µM) was 0.515. It also gave a relative viability ([7]; first compound 2 µM) of 0.37, a relative viability ([8]; first compound 0.02 µM) of 0.963 and a relative viability ([8]; first compound 0.2 µM) of 0.567. It also gave a relative viability ([8]; first compound 0.6325 µM) of 1.06, a relative viability ([8]; first compound 2 µM) of 0.967 and a relative viability ([9]; first compound 0.02 µM) of 0.69. The relative viability ([9]; first compound 0.2 µM) was 0.528, the relative viability ([9]; first compound 0.6325 µM) was 0.387 and the relative viability ([9]; first compound 2 µM) was 0.256. For the same compound, the relative viability ([10]; first compound 0.02 µM) was 0.445, the relative viability ([10]; first compound 0.2 µM) was 0.397 and the relative viability ([10]; first compound 0.6325 µM) was 0.387. The relative viability ([10]; first compound 2 µM) was 0.429, the relative viability ([11]; first compound 0.02 µM) was 0.549 and the relative viability ([11]; first compound 0.2 µM) was 0.474. For the same compound, the relative viability ([11]; first compound 0.6325 µM) was 0.496 and the relative viability ([11]; first compound 2 µM) was 0.296.
